In general, LD50 refers to the dose expected to kill half of the subjects tested. Read a low LD50 as greater toxicity.

Structures can show the parent of a compound that is named as a salt.

EC50 and LD50 data for 19 molecules are collected here from patent publication US5574071A, “Method of lowering cholesterol” (Hoffmann-La Roche Inc., priority 1993, dated 1996).

The subject of one data set is LDL receptor in human hepatoma cells (Hep G2). The experiment in a line: Inhibition of cholesterol synthesis in human hepatoma cells (Hep G2), determined by stimulation of LDL receptors (ELISA, C7-LDL antibody). Conditions: HepG2, Table B, versus untreated cells, read-out: EC50 (concentration which increases the activity of the LDL receptor by 50% in comparison to the control). Type of data set: cell-based. On the procedure: Thus, the inhibition of cholesterol :synthesis in human hepatoma cells (Hep G2) was determined on the basis of the stimulation of the LDL receptors induced in parallel. The cells were placed in microtitre plates and treated with the cholesterol synthesis inhibitor. The concentration of the LDL receptor is measured by ELISA methodology, with the C7-LDL antibody being used as the primary antibody. The EC50 values in nM/I in Table B hereinafter correspond to the concentration of cholesterol synthesis inhibitor which increases the activity of the receptor by 50% in comparison to the control, that is, untreated cells.
On the technique in general: An ELISA detects its analyte on a solid surface through an enzyme-linked reagent.
In the case of `C=CCN(C)CC=CCOc1ccc(C(=O)c2ccc(Br)cc2)cc1` [Compound 1, trans-4-[[4-(allymethylamino)-2-butenyl]oxy]-4'-bromo-benzophenone], the EC50 was determined as 50 nM.
Still for that read-out and setting: as for `C=CCN(C)Cc1ccc(-c2ccc(C(=O)c3ccc(C#N)cc3)cc2)cc1` [Compound 2, p-[[4'-[(allylmethylamino)methyl]-4-biphenylyl]carbonyl]-benzonitrile], the figure is 43 nM; as for `C=CCN(C)CC=CCOc1ccc(C(=O)c2ccc([N+](=O)[O-])cc2)cc1` [Compound 3, trans-4-[[4-(allylmethylamino)-2-butenyl]oxy]-4'-nitro-benzophenone], 63 nM; as for `CN(C)Cc1ccc(-c2ccc(C(=O)c3ccc([N+](=O)[O-])cc3Cl)cc2)cc1` [Compound 4, 2-chloro-4-nitrophenyl 4'-[(dimethylamino)methyl]-4-biphenylyl ketone], 153 nM.
Still for that read-out and setting: next, `C=CCN(C)CC=CCOc1ccc(C(=O)c2ccc(Cl)cc2Cl)cc1` [Compound 7, trans-4-[[4-(allymethylamino)-2-butenyl]oxy]-2',4'-dichloro-benzophenone]: 82 nM; `C=CCN(C)CCCCCCOc1ccc(C(=O)c2ccc(Br)cc2)cc1` [Example 9a, [4-[6-(allyl-methyl-amino)-hexyloxy]-phenyl]-(4-bromo-phenyl)-methanone hydrobromide]: 51 nM.
Take `C=CCN(C)CCCCCCOc1ccc(C(=O)c2ccc(Br)cc2)cc1F` [Example 9c, [4-[6-(ally-methyl-amino)-hexyloxy]-3-fluoro-phenyl]-(4-bromo-phenyl)-methanone]: the EC50 is 203 nM.
Regarding `C=CCN(C)CCCCCCOc1ccc(C(=O)c2ccc(Br)cc2)c(F)c1` [Example 9d, [4-[6-(allyl-methyl-amino)-hexyloxy]-2-fluoro-phenyl]-(4-bromo-phenyl)-methanone], the EC50 was determined as 57 nM.
With `C=CCN(C)C/C=C/COc1ccc(C(=O)c2ccc(Br)cc2)cc1F` [Example 9f, (E)-[4-[4-(allyl-methyl-amino)-but-2-enyloxy]-3-fluoro-phenyl]-(4-bromo-phenyl)-methanone], the EC50 was 10 nM.
With `C=CCN(C)C/C=C/COc1ccc(C(=O)CCCC(C)C)cc1` [Example 9g, (E)-I -[4-[4-(allyl-methyl-amino)-but-2-enyloxy]-phenyl]-5-methyl-hexan-l-one], the EC50 amounted to 177 nM.
On to `C=CCN(C)C/C=C/COc1ccc(C(=O)c2ccc(I)cc2)cc1` [Example 9h, (E)-[4-[4-(allyl-methyl-amino)-but-2-enyloxy]-phenyl]-(4-iodo-phenyl)-methanone], for which the EC50 was 94 nM.
Regarding `C=CCN(C)C/C=C/COc1ccc(C(=O)c2ccc(C#N)cc2)cc1F` [Example 9j, (E)-[4-[4-(allyl-methyl-amino)-but-2-enyloxy]-3-fluoro-benzoyl]-benzonitrile], the EC50 was determined as 19 nM.
`C=CCN(C)C/C=C/COc1ccc(C(=O)c2c(F)cccc2F)cc1F` [Example 9l, (E)-[4-[4-(allyl-methyl-amino)-but-2-enyloxy]-3-fluoro-phenyl]-(2,6-difluoro-phenyl)-methanone]: the EC50 is 220 nM.
As for `C=CCN(C)C/C=C/COc1ccc(C(=O)CCC=C(C)C)cc1` [Example 9m, (E)-I -[4-[4-(allyl-methyl-amino)-but-2-enyloxy]phenyl]-5-methyl-hex-4-en-l-one], the EC50 turned out to be 34 nM.
Regarding `C=CCN(C)C/C=C/COc1ccc(C(=O)c2ccc(Br)cc2)c(F)c1` [Example 9n, (E)-[4-[4-(allyl-methyl-amino)-but-2-enyloxy]-2-fluoro-phenyl]-(4-bromo-phenyl)-methanone], the EC50 stood at 133 nM.
As for `C=CCN(C)C/C=C/COc1ccc(CC(=O)CCC=C(C)C)cc1F` [Example 9p, (E)-1-[4-[4-(allyl-methylamino)-but-2-enyloxy]-3-fluoro-phenyl]-6-methyl-hept-5-en-2-one], the EC50 stood at 98 nM.
For `C=CCN(C)C/C=C/COc1ccc(CC(=O)c2ccc(Br)cc2)cc1` [Example 9r, (E)-2-[4-[4-(allyl-methyl-amino)-but-2-enyloxy)-phenyl]-1-(4-bromo-phenyl)-ethanone], the EC50 amounted to 222 nM.
Regarding `CCN(C)C/C=C/COc1ccc(C(=O)c2ccc(Br)cc2)cc1` [Example 9s, (E)-(4-bromo-phenyl)-[4-[4-(ethyl-methyl-amino)-but-2-enyloxy]-phenyl]-methanone hydrobromide], the EC50 was determined as 122 nM.

Tested on in the next data set: not listed separately
Kind of data set: Toxicity (LD50 per os in the mouse). The conditions noted are these: in vivo, po.
As to `CC(C)=CCCC(=O)c1ccc(-c2ccc(CN(C)C)cc2)cc1` [Compound 20], the LD50 lay within 1250 to 2500 mg/kg.
